Patent publication US20260266848A1, “COMPOSITIONS AND METHODS FOR DIAGNOSING AND TREATING DYSTONIA” (Duke University, priority 2023, published 2026)

Tested on: WT MEF EVs
Test: Quantitative LC-MS/MS proteomics of EVs from ISRIB-treated WT MEF cultures
Format: cell-based, mouse

Structure (SMILES): O=C(COc1ccc(Cl)cc1)NC1CCC(NC(=O)COc2ccc(Cl)cc2)CC1 (centres unmarked) [ISRIB, reference compound]
- Hnrnpc (HNRNPC) EV abundance Log2_FC (WT+ISRIB/WT, 50 nM, 24 h): 1.478
- Ipo9 (IPO9) EV abundance Cohen's d (WT+ISRIB/WT, 50 nM, 24 h): −0.4661
- Ipo9 (IPO9) EV abundance Log2_FC (WT+ISRIB/WT, 50 nM, 24 h): −0.5386
- Jam3 (JAM3) EV abundance Cohen's d (WT+ISRIB/WT, 50 nM, 24 h): −0.3267
- Jam3 (JAM3) EV abundance Log2_FC (WT+ISRIB/WT, 50 nM, 24 h): 0.373
- Lipg (LIPG) EV abundance Cohen's d (WT+ISRIB/WT, 50 nM, 24 h): 0.7395
- Lipg (LIPG) EV abundance Log2_FC (WT+ISRIB/WT, 50 nM, 24 h): −0.3639
- Lrrc59 (LRRC59) EV abundance Cohen's d (WT+ISRIB/WT, 50 nM, 24 h): −0.6884
- Lrrc59 (LRRC59) EV abundance Log2_FC (WT+ISRIB/WT, 50 nM, 24 h): 0.3431
- Mapk3 (MAPK3) EV abundance Cohen's d (WT+ISRIB/WT, 50 nM, 24 h): −0.8739
- Mapk3 (MAPK3) EV abundance Log2_FC (WT+ISRIB/WT, 50 nM, 24 h): −0.163
- Mars (MARS1) EV abundance Cohen's d (WT+ISRIB/WT, 50 nM, 24 h): 0.05955
- Mars (MARS1) EV abundance Log2_FC (WT+ISRIB/WT, 50 nM, 24 h): −0.3717
- Mrc2 (MRC2) EV abundance Cohen's d (WT+ISRIB/WT, 50 nM, 24 h): 0.2117
- Mrc2 (MRC2) EV abundance Log2_FC (WT+ISRIB/WT, 50 nM, 24 h): −0.2942
- Myh9 (MYH9) EV abundance Cohen's d (WT+ISRIB/WT, 50 nM, 24 h): −0.02365
- Myh9 (MYH9) EV abundance Log2_FC (WT+ISRIB/WT, 50 nM, 24 h): 0.05232
- Ndnf (NDNF) EV abundance Cohen's d (WT+ISRIB/WT, 50 nM, 24 h): 1.071
- Ndnf (NDNF) EV abundance Log2_FC (WT+ISRIB/WT, 50 nM, 24 h): −0.1375
- Pcmt1 (PCMT1) EV abundance Cohen's d (WT+ISRIB/WT, 50 nM, 24 h): −0.8553
- Pcmt1 (PCMT1) EV abundance Log2_FC (WT+ISRIB/WT, 50 nM, 24 h): −0.06624
- Pi4ka (PI4KA) EV abundance Cohen's d (WT+ISRIB/WT, 50 nM, 24 h): −0.4893
- Pi4ka (PI4KA) EV abundance Log2_FC (WT+ISRIB/WT, 50 nM, 24 h): 0.3826
- Pitpnb (PITPNB) EV abundance Cohen's d (WT+ISRIB/WT, 50 nM, 24 h): −1.114
- Pitpnb (PITPNB) EV abundance Log2_FC (WT+ISRIB/WT, 50 nM, 24 h): 1.461
- Prpsap2 (PRPSAP2) EV abundance Cohen's d (WT+ISRIB/WT, 50 nM, 24 h): 0.2158
- Prpsap2 (PRPSAP2) EV abundance Log2_FC (WT+ISRIB/WT, 50 nM, 24 h): −0.6725
- Psmc5 (PSMC5) EV abundance Cohen's d (WT+ISRIB/WT, 50 nM, 24 h): 0.4267
- Psmc5 (PSMC5) EV abundance Log2_FC (WT+ISRIB/WT, 50 nM, 24 h): −0.3622
- Psmd12 (PSMD12) EV abundance Cohen's d (WT+ISRIB/WT, 50 nM, 24 h): 0.00373
- Psmd12 (PSMD12) EV abundance Log2_FC (WT+ISRIB/WT, 50 nM, 24 h): −0.3805
- Psme4 (PSME4) EV abundance Cohen's d (WT+ISRIB/WT, 50 nM, 24 h): −0.8162
- Psme4 (PSME4) EV abundance Log2_FC (WT+ISRIB/WT, 50 nM, 24 h): −0.7974
- Ptma (PTMA) EV abundance Cohen's d (WT+ISRIB/WT, 50 nM, 24 h): 0.6355
- Ptma (PTMA) EV abundance Log2_FC (WT+ISRIB/WT, 50 nM, 24 h): 2.638
- Rap2b (RAP2B) EV abundance Cohen's d (WT+ISRIB/WT, 50 nM, 24 h): 0.3788
- Rap2b (RAP2B) EV abundance Log2_FC (WT+ISRIB/WT, 50 nM, 24 h): −0.1245
- Rbm3 (RBM3) EV abundance Cohen's d (WT+ISRIB/WT, 50 nM, 24 h): −0.3159
- Rbm3 (RBM3) EV abundance Log2_FC (WT+ISRIB/WT, 50 nM, 24 h): 0.2028
- Rhoa (RHOA) EV abundance Cohen's d (WT+ISRIB/WT, 50 nM, 24 h): −1.25
- Rhoa (RHOA) EV abundance Log2_FC (WT+ISRIB/WT, 50 nM, 24 h): −0.00598
- Rpl10 (RPL10) EV abundance Cohen's d (WT+ISRIB/WT, 50 nM, 24 h): −0.35
- Rpl10 (RPL10) EV abundance Log2_FC (WT+ISRIB/WT, 50 nM, 24 h): 0.00077
- Rpl13a (RPL13A) EV abundance Cohen's d (WT+ISRIB/WT, 50 nM, 24 h): 0.3123
- Rpl13a (RPL13A) EV abundance Log2_FC (WT+ISRIB/WT, 50 nM, 24 h): 0.04217
- Rps13 (RPS13) EV abundance Cohen's d (WT+ISRIB/WT, 50 nM, 24 h): −0.2269
- Rps13 (RPS13) EV abundance Log2_FC (WT+ISRIB/WT, 50 nM, 24 h): 0.2809
- Sec31a (SEC31A) EV abundance Cohen's d (WT+ISRIB/WT, 50 nM, 24 h): −0.3764
- Sec31a (SEC31A) EV abundance Log2_FC (WT+ISRIB/WT, 50 nM, 24 h): −0.2838
- Slc2a1 (SLC2A1) EV abundance Cohen's d (WT+ISRIB/WT, 50 nM, 24 h): −0.34
- Slc2a1 (SLC2A1) EV abundance Log2_FC (WT+ISRIB/WT, 50 nM, 24 h): 0.08012
- Stom (STOM) EV abundance Cohen's d (WT+ISRIB/WT, 50 nM, 24 h): −0.7279
- Stom (STOM) EV abundance Log2_FC (WT+ISRIB/WT, 50 nM, 24 h): 0.1135
- Tardbp (TARDBP) EV abundance Cohen's d (WT+ISRIB/WT, 50 nM, 24 h): −0.3087
- Tardbp (TARDBP) EV abundance Log2_FC (WT+ISRIB/WT, 50 nM, 24 h): −0.06285
- Tgfb2 (TGFB2) EV abundance Cohen's d (WT+ISRIB/WT, 50 nM, 24 h): 0.6984
- Tgfb2 (TGFB2) EV abundance Log2_FC (WT+ISRIB/WT, 50 nM, 24 h): −0.319
- Tln1 (TLN1) EV abundance Cohen's d (WT+ISRIB/WT, 50 nM, 24 h): −0.39
- Tln1 (TLN1) EV abundance Log2_FC (WT+ISRIB/WT, 50 nM, 24 h): −0.05074
- Tln2 (TLN2) EV abundance Cohen's d (WT+ISRIB/WT, 50 nM, 24 h): −0.7484
- Tln2 (TLN2) EV abundance Log2_FC (WT+ISRIB/WT, 50 nM, 24 h): −0.02524
- Tubb1 (TUBB1) EV abundance Cohen's d (WT+ISRIB/WT, 50 nM, 24 h): 0.3005
- Tubb1 (TUBB1) EV abundance Log2_FC (WT+ISRIB/WT, 50 nM, 24 h): 0.1945
- Usp7 (USP7) EV abundance Cohen's d (WT+ISRIB/WT, 50 nM, 24 h): −0.3328
- Usp7 (USP7) EV abundance Log2_FC (WT+ISRIB/WT, 50 nM, 24 h): −0.8347
- Wdr26 (WDR26) EV abundance Cohen's d (WT+ISRIB/WT, 50 nM, 24 h): −0.2688
- Wdr26 (WDR26) EV abundance Log2_FC (WT+ISRIB/WT, 50 nM, 24 h): −0.05756
- Zyx (ZYX) EV abundance Cohen's d (WT+ISRIB/WT, 50 nM, 24 h): −0.131
- Zyx (ZYX) EV abundance Log2_FC (WT+ISRIB/WT, 50 nM, 24 h): 0.1801
- Pearson r between DYT genotype effects and ISRIB effects (entire proteome): 0.37
- Pearson r between DYT genotype effects and ISRIB effects (genotype-disrupted proteins): 0.40
